The supplement of paper PMC11061612

Legend:
[1] = tested on: U-266 (Plasma Cell Myeloma); assay: Bliss excess, mean over the matrix (fraction); higher = more synergy
Procedure, shortened: (§1)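 Bliss excess equals the observed combination effect minus the expected value EA + EB − EA·EB, where EA and EB are the effects of each agent alone. Combination Emax is the second-highest inhibition within the matrix. Inhibition was scaled from CellTiter-Glo 2.0 luminescence, with 0 set by vehicle wells and 1 by blank wells, after 72 hours of two-drug dosing of cells plated in 1536-well plates.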

[2] = tested on: KARPAS-620 (Plasma Cell Myeloma); assay: as above
Procedure, shortened: as §1

[3] = tested on: MDA-MB-231 (Breast Carcinoma); assay: as above
Procedure, shortened: as §1

[4] = tested on: NCI-H1299 (Non-Small Cell Lung Carcinoma); assay: as above
Procedure, shortened: as §1

[5] = tested on: SW1990 (Pancreatic Carcinoma); assay: as above
Procedure, shortened: as §1

[6] = tested on: NCI-H211 (Small Cell Lung Carcinoma); assay: as above
Procedure, shortened: as §1

[7] = tested on: COR-L95 (Small Cell Lung Carcinoma); assay: as above
Procedure, shortened: as §1

NCI-H2595 (Mesothelioma) = assay: as above
Procedure, shortened: as §1

[8] = tested on: KATOIII (Gastric Carcinoma); assay: as above
Procedure, shortened: as §1

[9] = tested on: NALM-6 (B-Lymphoblastic Leukemia); assay: as above
Procedure, shortened: as §1

[10] = tested on: DB (B-Cell Non-Hodgkin's Lymphoma); assay: as above
Procedure, shortened: as §1

[11] = tested on: HT-29 (Colorectal Carcinoma); assay: as above
Procedure, shortened: as §1

[12] = tested on: IHH-4 (Thyroid Gland Carcinoma); assay: as above
Procedure, shortened: as §1

[13] = tested on: U-266 (Plasma Cell Myeloma); assay: combination Emax (second highest fraction inhibited in the dose matrix, 72 h); higher = more inhibition; extreme values may be limits of the assay
Procedure, shortened: as §1

[14] = tested on: NCI-H1299 (Non-Small Cell Lung Carcinoma); assay: as above
Procedure, shortened: as §1

[15] = tested on: G-292-Clone-A141B1 (Osteosarcoma); assay: as above
Procedure, shortened: as §1

[16] = tested on: NCI-H211 (Small Cell Lung Carcinoma); assay: as above
Procedure, shortened: as §1

[17] = tested on: COR-L95 (Small Cell Lung Carcinoma); assay: as above
Procedure, shortened: as §1

[18] = tested on: SW1783 (Low Grade Glioma); assay: as above
Procedure, shortened: as §1

[19] = tested on: KARPAS-1106P (B-Cell Non-Hodgkin's Lymphoma); assay: as above
Procedure, shortened: as §1

Row | Structure (SMILES) | Bliss excess [1] | Bliss excess [2] | Bliss excess [3] | Bliss excess [4] | Bliss excess [5] | Bliss excess [6] | Bliss excess [7] | Bliss excess (NCI-H2595 (Mesothelioma)) | Bliss excess [8] | Bliss excess [9] | Bliss excess [10] | Bliss excess [11] | Bliss excess [12] | combination Emax [13] | combination Emax [14] | combination Emax [15] | combination Emax [16] | combination Emax [17] | combination Emax [18] | combination Emax [19]
1 | N#Cc1cnc(Nc2cc(NC[C@H]3CNCCO3)c(C(F)(F)F)cn2)cn1 [SRA737] + Nc1ccn([C@@H]2O[C@H](CO)[C@@H](O)C2(F)F)c(=O)n1 [Gemcitabine] (first compound max 10 µM, 7x7, partner max 0.3 µM) | -0.0101 | 0.151 | 0.105 | 0.0831 | -0.0384 | 0.0372 | -0.0067 | 0.0252 | -0.0794 | -0.0673 | 0.0174 | 0.0573 | 0.0649 | 0.78 | 0.765 | 0.317 | 0.977 | 0.391 | 0.729 | 0.951
2 | O=C(c1cc(Cc2n[nH]c(=O)c3ccccc23)ccc1F)N1CCN(C(=O)C2CC2)CC1 [Olaparib] + Cc1c2c(nn1C)CSCc1cc(n(C)n1)CSc1cc(c3ccccc3c1)OCCCc1c(C(=O)O)n(C)c3c-2c(Cl)ccc13 [AZD5991] (first compound max 10 µM, 7x7, partner max 1 µM) | -0.0244 | 0.0121 | -0.0354 | -0.0455 | -0.0296 | 0.024 | -0.0514 | -0.0396 | -0.0852 | -0.039 | 0.0141 | -0.0333 | -0.0093 | 0.846 | 0.0533 | 0.109 | 0.957 | 0.395 | 0.0425 | 0.919
3 | Cc1cc2ncnn2cc1Nc1ncc2c(n1)n(C1CCOCC1)c(=O)n2C [AZD7648] + COc1cc([C@@H]2c3cc4c(cc3[C@@H](O[C@@H]3O[C@@H]5CO[C@@H](C)O[C@H]5[C@H](O)[C@H]3O)[C@H]3COC(=O)[C@H]23)OCO4)cc(OC)c1O [Etoposide] (first compound max 10 µM, 7x7, partner max 10 µM) | -0.0446 | 0.0051 | 0.0776 | 0.113 | 0.0302 | 0.0313 | 0.0315 | 0.0252 | -0.0224 | 0.0869 | 0.0998 | 0.0162 | 0.185 | 0.581 | 0.649 | 0.321 | 0.968 | 0.551 | 0.706 | 0.781
4 | CN(CCO)CC[C@H](CSc1ccccc1)Nc1ccc(S(=O)(=O)NC(=O)c2ccc(N3CCC([C@@H](O)c4ccccc4-c4ccc(Cl)cc4)CC3)cc2)cc1S(=O)(=O)C(F)(F)F [AZD4320] + Nc1ccn([C@@H]2O[C@H](CO)[C@@H](O)C2(F)F)c(=O)n1 [Gemcitabine] (first compound max 1 µM, 7x7, partner max 0.3 µM) | 0.0421 | -0.0168 | -0.0245 | -0.0261 | 0.0103 | 0.0135 | 0.0634 | -0.0542 | 0.0213 | -0.0024 | -0.029 | 0.0191 | 0.0132 | 0.857 | 0.482 | 0.511 | 1 | 1 | 0.911 | 0.943
5 | O=C(c1cc(Cc2n[nH]c(=O)c3ccccc23)ccc1F)N1CCN(C(=O)C2CC2)CC1 [Olaparib] + COc1nnc2ccc(N3CCC(c4ccc(OCCN5CCN(C)C(=O)[C@H]5C)cc4)CC3)nn12 [AZD5153] (first compound max 10 µM, 7x7, partner max 1 µM) | -0.0332 | -0.0365 | -0.0586 | -0.0826 | -0.0669 | -0.0168 | -0.0488 | -0.12 | -0.0584 | -0.0547 | 0.0255 | -0.0406 | -0.0058 | 0.291 | 0.637 | 0.224 | 0.992 | 0.455 | 0.319 | 0.791
6 | N#Cc1cnc(Nc2cc(NC[C@H]3CNCCO3)c(C(F)(F)F)cn2)cn1 [SRA737] + CCc1c2c(nc3ccc(O)cc13)-c1cc3c(c(=O)n1C2)COC(=O)[C@]3(O)CC [SN-38] (first compound max 10 µM, 7x7, partner max 0.3 µM) | 0.0402 | 0.0655 | -0.0227 | 0.0179 | -0.0824 | -0.0649 | -0.0191 | -0.0762 | -0.0046 | -0.0083 | -0.0472 | 0.0196 | -0.0117 | 0.576 | 0.559 | 0.41 | 0.987 | 0.572 | 0.857 | 0.902
7 | CC1(C)CCC(CN2CCN(c3ccc(C(=O)NS(=O)(=O)c4ccc(NCC5CCOCC5)c([N+](=O)[O-])c4)c(Oc4cnc5[nH]ccc5c4)c3)CC2)=C(c2ccc(Cl)cc2)C1 [Venetoclax] + CS(=O)(=O)CCNCc1ccc(-c2ccc3ncnc(Nc4ccc(OCc5cccc(F)c5)c(Cl)c4)c3c2)o1 [Lapatinib] (first compound max 1 µM, 7x7, partner max 10 µM) | -0.0555 | 0.0569 | -0.034 | -0.0402 | -0.0384 | -0.0037 | -0.0566 | -0.0574 | -0.0386 | 0.0563 | 0.0803 | -0.0493 | -0.0082 | 0.254 | 0.125 | 0.113 | 1 | 0.677 | 0.207 | 0.419
8 | O=C(c1cc(Cc2n[nH]c(=O)c3ccccc23)ccc1F)N1CCN(C(=O)C2CC2)CC1 [Olaparib] + CN(CC[C@H](CSC1=CC=CC=C1)NC2=C(C=C(C=C2)S(=O)(=O)NC(=O)C3=CC=C(C=C3)N4CCC(CC4)[C@H](C5=CC=CC=C5C6=CC=C(C=C6)Cl)O)S(=O)(=O)C(F)(F)F)CCO [AZD4320] (first compound max 10 µM, 7x7, partner max 1 µM) | -0.0187 | 0.0017 | -0.071 | -0.0463 | -0.0818 | 0.0233 | 0.0593 | -0.045 | -0.0047 | 0.0211 | -0.0863 | -0.0278 | -0.0368 | 0.631 | 0.114 | 0.419 | 1 | 1 | 0.289 | 0.498
